This assay concerns the target T1, TRPV3 (G573C) (Homo sapiens, UniProt Q8NET8, G573C).
T1 construct: host or cells: HEK 293T (transient transfection, pEGFP-N1 co-transfected as a marker)
T1 sequence (Q8NET8 1-790 G573C): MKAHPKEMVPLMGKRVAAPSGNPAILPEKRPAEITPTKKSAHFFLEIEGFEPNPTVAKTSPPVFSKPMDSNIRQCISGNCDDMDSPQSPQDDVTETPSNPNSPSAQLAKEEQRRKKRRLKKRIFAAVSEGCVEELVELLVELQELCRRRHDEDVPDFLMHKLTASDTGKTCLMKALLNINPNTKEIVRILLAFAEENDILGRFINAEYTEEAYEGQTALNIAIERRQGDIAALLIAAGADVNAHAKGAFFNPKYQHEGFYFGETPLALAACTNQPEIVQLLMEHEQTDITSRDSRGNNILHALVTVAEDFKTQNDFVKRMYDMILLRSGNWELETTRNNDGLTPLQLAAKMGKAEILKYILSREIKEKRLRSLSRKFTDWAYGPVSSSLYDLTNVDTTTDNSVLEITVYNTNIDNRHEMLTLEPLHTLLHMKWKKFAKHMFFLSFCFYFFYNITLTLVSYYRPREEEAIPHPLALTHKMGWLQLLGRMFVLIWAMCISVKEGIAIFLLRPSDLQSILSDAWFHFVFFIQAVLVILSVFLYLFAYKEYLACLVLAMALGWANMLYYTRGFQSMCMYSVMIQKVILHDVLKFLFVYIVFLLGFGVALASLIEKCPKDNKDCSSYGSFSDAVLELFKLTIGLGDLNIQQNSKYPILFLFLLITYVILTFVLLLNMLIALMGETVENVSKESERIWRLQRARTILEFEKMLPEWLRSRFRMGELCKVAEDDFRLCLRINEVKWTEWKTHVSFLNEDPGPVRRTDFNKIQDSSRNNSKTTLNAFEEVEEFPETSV
In words: Fura-2 calcium imaging, spontaneous Ca2+ increase in TRPV3 (G573C)-expressing HEK 293T cells. The class given is cell-based. As to conditions: 1 µM. From the text:
Figure 4 Alpha-mangostin inhibited the activity of hyperactive TRPV3 mutant channels and rescued mutation-induced cell death. (A) Alpha-mangostin inhibited the channel current in representative TRPV3 (G573S)- and TRPV3 (G573C)-expressing HEK 293T cells. […] Currents were normalized to the response at −100 mV before adding alpha-mangostin. (C) Alpha-mangostin inhibited TRPV3-mediated intracellular calcium increase in TRPV3 (G573S)-expressing HEK 293T cells. […] The bar graph on the right summarizes the change in the intracellular calcium rise inhibited by alpha-mangostin. […]
Subsequently, the effects of alpha-mangostin on the activities of the mutated channels were further evaluated using intracellular calcium measurements.
Fura-2 AM (Thermo Fisher Scientific) was utilized as a fluorescent indicator to measure calcium signal, as described previously. […] To measure the cytosolic Ca^2+ level, a sequential excitation of Fura-2 is performed at 340 nm and 380 nm; then, the emission signals resulting from each excitation wavelength are measured and the ratio of these signals is calculated. […] Samples were excited using a wavelength of 380 nm for 20 ms, followed by 340 nm for 100 ms, and fluorescence at 510 nm was recorded. Recorded data were then analyzed using NIS-Element AR Version 5.00.00 (Nikon Instruments, Melville, NY, USA). […]

Consider `COc1c(O)cc2oc3cc(O)c(CC=C(C)C)c(O)c3c(=O)c2c1CC=C(C)C` [Alpha-mangostin], for which the “Effect on spontaneous intracellular calcium increase” value was “potently attenuated”.

The record behind these values is publication PMC10455244, “Alpha-Mangostin: A Potent Inhibitor of TRPV3 and Pro-Inflammatory Cytokine Secretion in Keratinocytes” (International Journal of Molecular Sciences, 2023).
